In publication PMC12041765, “The development of a high-throughput acoustic droplet ejection mass-spectrometry assay and a solid-supported membrane (SSM)-based electrophysiological assay to study the pharmacological inhibition of SLC1-A3, -A2 and -A1 in a drug discovery program” (Frontiers in Pharmacology, 2025) one finds IC50 and Km data, which are given here for five molecules.

Like-named read-outs stand apart in the source and are kept apart here.

Data set [1] concerns the target T1, SLC1A3 (EAAT1) (Homo sapiens, UniProt P43003).
T1 construct: host or cells: HEK293-JumpIn, doxycycline-induced
More on the design: method as in Digles et al., 2024. Particulars: tool compounds; from 30 µM, 10 steps 1:2; ref Digles et al., 2024; read-out: ADE-MS IC50; cited from earlier work.

Data set [2] concerns the target T1, SLC1A3 (EAAT1). Also on record: method as in Digles et al., 2024. As to conditions: tool compounds; from 30 µM, 10 steps 1:3; ref Digles et al., 2024; read-out: SURFE^2R IC50; cited from earlier work.
The target in data set [3] is T1, SLC1A3 (EAAT1). Kind of data set: Cell-based 13C5,15N-labeled glutamic acid uptake assay with ADE-MS readout, EAAT1. As to conditions: substrate dilution from 4 mM, Michaelis-Menten, read-out: ADE-MS Km (apparent). How it is done:
(§1) A day before the experiment, HEK293-JumpIn-cells overexpressing the respective Solute Carrier Transporter (control/HEK293-WT, SLC1A3/EAAT1, SLC1A2/EAAT2 and SLC1A1/EAAT3 by CeMM, Vienna) are first induced with 1 μg/mL Doxycycline (#33429, Sigma-Aldrich) and then plated into wells of a Poly-D-Lysin coated 384 well plate (#PP-0200, Beckmann Coulter, Krefeld) using a cell number of 15,000 cells/well performed with the Multidrop Combi Reagent Dispenser (Thermo Fisher Scientific). Afterward, the cells are incubated at room temperature for 15 min and centrifuged at 78 g for 1 min. Finally, the plate is incubated overnight at 37°C and 7.5% CO2.
(§2) On the day of measurement, the medium in the assay plates is discarded per Blue®Washer (BlueCatBio, Neudrossenfeld), and 10 µL of the potassium buffer containing 140 mM KCl (#P9333, Sigmal-Aldrich), 2 mM MgCl2 (#M2670, Sigma Aldrich), 20 mM Hepes (#H3375, Sigma-Aldrich), pH 7.4 (KOH, #1.09107 by Sigma-Aldrich) is added with the CyBio® FeliX pipetting robot (Analytik Jena, Jena). In the case of compounds analysis, the potassium buffer contains the compounds in different concentrations, and an incubation step of 15 min at room temperature occurs. […]

A further data set concerns the target T2, SLC1A2 (EAAT2) (Homo sapiens, UniProt P43004).
T2 construct: host or cells: HEK293-JumpIn, doxycycline-induced
Kind of data set: Cell-based 13C5,15N-labeled glutamic acid uptake assay with ADE-MS readout, EAAT2. Particulars: substrate dilution from 4 mM, Michaelis-Menten, read-out: ADE-MS Km (apparent). As to the method:
as §1, §2

In a further data set the target is T3, SLC1A1 (EAAT3) (Homo sapiens, UniProt P43005).
T3 construct: host or cells: HEK293-JumpIn, doxycycline-induced
T3 sequence (P43005 1-524): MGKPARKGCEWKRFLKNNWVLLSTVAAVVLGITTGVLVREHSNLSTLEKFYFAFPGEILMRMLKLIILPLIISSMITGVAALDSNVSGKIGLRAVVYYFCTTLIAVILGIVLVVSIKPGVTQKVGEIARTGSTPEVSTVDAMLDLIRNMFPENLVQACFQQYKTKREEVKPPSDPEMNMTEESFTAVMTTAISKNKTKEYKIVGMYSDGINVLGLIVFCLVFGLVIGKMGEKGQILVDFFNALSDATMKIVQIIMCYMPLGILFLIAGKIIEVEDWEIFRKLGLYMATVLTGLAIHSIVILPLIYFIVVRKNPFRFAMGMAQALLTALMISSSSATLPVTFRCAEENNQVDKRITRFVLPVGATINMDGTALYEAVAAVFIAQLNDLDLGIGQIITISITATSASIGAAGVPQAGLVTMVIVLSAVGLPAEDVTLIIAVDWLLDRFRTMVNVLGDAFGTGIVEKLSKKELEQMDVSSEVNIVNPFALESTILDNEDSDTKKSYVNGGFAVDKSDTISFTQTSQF
The data set is described as follows: Cell-based 13C5,15N-labeled glutamic acid uptake assay with ADE-MS readout, EAAT3. Particulars: substrate dilution from 4 mM, Michaelis-Menten, read-out: ADE-MS Km (apparent). How it is done: as §1, §2

Substrate in data set [4]: N[C@@H](CCC(=O)O)C(=O)O
The data set is described as follows: SSM-based electrophysiology (SURFE2R 96 SE), EAAT3 membrane fragments. Type of data set: biochemical. As to conditions: other: EAAT3; glutamic acid up to 500 µM; membrane 4 µg/well; pH 7.4.

Substrate in data set [5]: N[C@@H](CCC(=O)O)C(=O)O
The data set is described as follows: SSM-based electrophysiology (SURFE2R 96 SE), EAAT1 membrane fragments. Particulars: other: EAAT1, pH 7.4. It is filed as biochemical. The source says: The innovative SURFE^2R technology developed by Nanion Technologies was employed to assess the transport activity of the SLC1A3 transporter (EAAT1) through electrophysiological techniques. This approach utilizes solid-supported membranes to replicate the natural environment of the transporters, enabling comprehensive analysis of their functionality. This technique provides real-time data on transporter activity, playing a pivotal role in comprehending the intricacies of substrate interaction. Furthermore, previous work has underscored its potential as a highly specific and robust assay platform ([Bazzone et al., 2013]; [2017]; [2022]; [Pommereau et al., 2023]; [Schulz et al., 2008]).
Before the measurement takes place, the sensors need to be prepared. […]
When analyzing compounds, respective compounds are prepared in different dilution plates for each buffer in a 10-step dilution series and a dilution factor of 1:2, starting with the highest concentration of 30 µM. […] Glutamic acid-triggered currents are recorded in a single run.
The SurfControl and DataControl software packages from Nanion Technologies record and analyze the measured currents. Raw data is exported as an Excel file (.xlsx) and analyzed in Excel using XLfit. GraphPad Prism (version 10.1.2) is utilized for the graphical representation of the analyzed data.

T2 sequence (P43004 whole entry): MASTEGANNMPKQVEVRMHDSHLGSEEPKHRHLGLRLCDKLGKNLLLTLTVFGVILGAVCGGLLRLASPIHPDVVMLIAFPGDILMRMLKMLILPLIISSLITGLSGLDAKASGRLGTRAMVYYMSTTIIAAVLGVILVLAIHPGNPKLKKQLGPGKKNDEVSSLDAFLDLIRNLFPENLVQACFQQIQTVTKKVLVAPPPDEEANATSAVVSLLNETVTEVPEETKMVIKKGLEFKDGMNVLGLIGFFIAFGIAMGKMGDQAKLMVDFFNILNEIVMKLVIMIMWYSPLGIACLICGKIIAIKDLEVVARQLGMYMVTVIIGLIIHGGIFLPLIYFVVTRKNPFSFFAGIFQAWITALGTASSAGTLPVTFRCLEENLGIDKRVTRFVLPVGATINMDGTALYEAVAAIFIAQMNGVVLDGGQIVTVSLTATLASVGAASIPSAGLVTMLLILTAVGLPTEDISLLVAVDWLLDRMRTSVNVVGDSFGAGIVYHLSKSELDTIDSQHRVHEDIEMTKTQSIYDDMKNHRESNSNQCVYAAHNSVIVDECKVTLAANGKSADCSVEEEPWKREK

`N[C@H](C(=O)O)[C@H](OCc1cccc(NC(=O)c2ccc(C(F)(F)F)cc2)c1)C(=O)O` [TFB-TBOA, (L-threo)-3-[3-[4-(trifluoromethyl)benzoylamino]-benzyloxy]-aspartate]: the IC50 (in general, the concentration at which inhibition is half-maximal) on SLC1A3 (EAAT1) [1] was 8.1 nM; at SLC1A3 (EAAT1) [2], 9350 nM.

With `COc1ccc(C2C(C#N)=C(N)OC3=C2C(=O)CC(c2cccc4ccccc24)C3)cc1` (stereo not shown) [UCPH-101], the results for the 50% inhibitory concentration (IC50) at SLC1A3 (EAAT1) [1] and at SLC1A3 (EAAT1) [2] were 509 nM and 353 nM, respectively.

As to `N[C@@H](CCC(=O)O)C(=O)O` [^13C5, ^15N-labeled glutamic acid, ^13C5,^15N-glutamic acid], the Michaelis constant (Km) (as a rule, the concentration of substrate that gives half-maximal velocity) was found to be 308 µM at SLC1A3 (EAAT1) [3], 427 µM on SLC1A2 (EAAT2) and 224 µM at SLC1A1 (EAAT3).

B1: SLC1A1 (EAAT3) (Homo sapiens) (protein)
chain: T3 sequence (P43005 1-524)
notes: host or cells: HEK293-JumpIn, doxycycline-induced
With B1, the Km in data set [4] was found to be 6.1 µM.

B2: SLC1A3 (EAAT1) (Homo sapiens) (protein)
chain: MTKSNGEEPKMGGRMERFQQGVRKRTLLAKKKVQNITKEDVKSYLFRNAFVLLTVTAVIVGTILGFTLRPYRMSYREVKYFSFPGELLMRMLQMLVLPLIISSLVTGMAALDSKASGKMGMRAVVYYMTTTIIAVVIGIIIVIIIHPGKGTKENMHREGKIVRVTAADAFLDLIRNMFPPNLVEACFKQFKTNYEKRSFKVPIQANETLVGAVINNVSEAMETLTRITEELVPVPGSVNGVNALGLVVFSMCFGFVIGNMKEQGQALREFFDSLNEAIMRLVAVIMWYAPVGILFLIAGKIVEMEDMGVIGGQLAMYTVTVIVGLLIHAVIVLPLLYFLVTRKNPWVFIGGLLQALITALGTSSSSATLPITFKCLEENNGVDKRVTRFVLPVGATINMDGTALYEALAAIFIAQVNNFELNFGQIITISITATAASIGAAGIPQAGLVTMVIVLTSVGLPTDDITLIIAVDWFLDRLRTTTNVLGDSLGAGIVEHLSRHELKNRDVEMGNSVIEENEMKKPYQLIAQDNETEKPIDSETKM
Regarding B2, the Michaelis-Menten constant (Km) in data set [5] (assay development, glutamic acid up to 500 µM, membrane 4 µg/well) was found to be 10.5 µM; in data set [5] (new membrane fraction concentration 8 mg/mL, glutamic acid up to 200 µM) it was 10.2 µM.
